Tested on: human neurotensin receptor proteins expressed in HEK cell membranes
Test: SPA [3H] neurotensin receptor binding assay
Conditions: displacement of 4 nM [3H]neurotensin, 2 hours, room temperature
Text: The Citrullimycines according to the invention show inhibition in the neurotensin receptor binding assay of human neurotensin receptor proteins expressed in HEK cell membranes.
SPA [^3H] Neurotensin Receptor Binding Assay
Compounds with an affinity for the neurotensin receptor will displace the binding of [3H] neurotensin, which results in a diminished radioactive signal. In the SPA method, receptors immobilized directly on PVT WGA (Wheat Germ Agglutinin) coated SPA beads (Amersham Pharmacia) bind the radiolabelled ligand. The ligand-receptor complex is held in close enough proximity to stimulate emission of light by the bead. Any unbound radioligand is too distant from the bead to transfer energy and therefore will not be detected.
The samples were pre-diluted 1:5 with assay buffer (50 mM Tris-HCl buffer with 1 mM EDTA, 0.2 mM Bacitracin, and 0.1% BSA, pH 7.4) in deep well plates. The final dilution in the assay was 1:20. 96-well isoplates from Wallac were used for the screening. […]
On each plate, four wells without samples were used to determine the total receptor-ligand binding and another four wells with 1 μM (L-α, γ-diaminobutyryl) neurotensin were used to determine the nonspecific binding respectively. Inhibition activities are expressed as: […]

With CCC(C)CCC(O)CC(=O)OC(CCC(C)C)CC(=O)NC(CCCNC(N)=O)C(=O)OC(CCC(C)CC)CC(=O)OC(CCC(C)CC)CC(=O)O (stereo not shown) [Citrullimycine A] as the compound, how does the IC50 read?
The IC50 was 16 µM.

Reference: patent publication US6930130B2, “Citrullimycines, a process for their production and their use as pharmaceuticals” (Aventis Pharma Deutschland GmbH, priority 2000, dated 2005)
